Test results published in patent publication US8377983B2, “Benzazole derivatives, compositions, and methods of use as aurora kinase inhibitors” (TransTech Pharma, Inc., priority 2006, dated 2013).

Legend:
[1] = test system: BT-474 breast xenograft; experiment: BT-474 xenograft model, Example 88 alone and in combination with trastuzumab; assay type: in vivo, athymic SCID mice; conditions: for Median Tumor Size: Example 88 30 mg/kg i.p. b.i.d. 3 days on, 2 days off, 5 cycles, trastuzumab 10 mg/kg i.p. twice weekly 4 weeks
Excerpt: Mice-bearing sc tumors were randomized, and treatment groups consisted of 10 mice.

[2] = test system: human MiaPaCa-2 pancreatic xenografts; experiment: MiaPaCa-2 xenograft model, Example 88 alone and in combination with erlotinib; assay type: in vivo, athymic mice; conditions: for Median Tumor Size: Example 88 10 mg/kg i.p. b.i.d. 10 days, erlotinib 50 mg/kg p.o. daily 14 days
Method: (§1) Compounds were dosed on the following schedules:
2) Erlotinib was dosed 50 mg/kg, p.o., daily for 14 days (days 1-14).
Mice-bearing sc tumors were randomized, and treatment groups consisted of 8 mice.

[3] = test system: human MiaPaCa-2 pancreatic xenografts; experiment: MiaPaCa-2 xenograft model, Example 88 alone and in combination with gemcitabine; assay type: in vivo, athymic mice; conditions: for Median Tumor Size: Example 88 10 mg/kg i.p. b.i.d. 10 days, gemcitabine 120 mg/kg i.p. q3d×4
Method: as §1
2) Gemcitabine was dosed 120 mg/kg, i.p., q3d×4 (days 1, 4, 7, 10).
Drug treatment started when mean tumor sizes reached approximately 120 mg (day 8). Mice-bearing sc tumors were randomized, and treatment groups consisted of 8 mice. The median tumor size for each group at various points in the study are listed below in Table B.

[4] = test system: human tumor xenografts derived from pancreas and breast tissues; experiment: Single agent antitumor activity in established human tumor xenografts; assay type: in vivo; conditions: established human tumor xenografts in athymic mice
Excerpt: While the compounds of the present invention may be used as a single agent, they may also be used as part of a combination therapy.

[5] = day 24, out of 10 mice, Table CC head: Example 88 10 mg/kg, Trastuzumab 10 mg/kg
[6] = day 8 of study (treatment start)
[7] = previous dose response studies in this model, 10 mg/kg
[8] = day 42, out of 8 mice, Example 88 10 mg/kg, gemcitabine 120 mg/kg

O=C(Nc1ccc2cn[nH]c2c1)c1cc2nc(Nc3ccccc3C(F)(F)F)[nH]c2cc1N1CCNCC1 [Example 88, 6-Piperazin-1-yl-2-(2-trifluoromethylphenylamino)-1H-benzimidazole-5-carboxylic acid (1H-indazol-6-yl)-amide]
Median Tumor Size ([1]; day 4 of study): 120 mg | Median Tumor Size ([1]; day 7 of study): 152 mg | Median Tumor Size ([1]; day 10 of study): 153 mg | Median Tumor Size ([1]; day 14 of study): 179 mg | Median Tumor Size ([1]; day 17 of study): 149 mg | Median Tumor Size ([1]; day 21 of study): 142 mg | complete responders (CR) [1, 5]: 0/10 | partial responders (PR) [1, 5]: 0/10 | Median Tumor Size ([1]; day 24 of study): 138 mg | Median Tumor Size ([1]; day 28 of study): 104 mg | Median Tumor Size [2, 6]: 120 mg | Median Tumor Size ([2]; day 10 of study): 162 mg | Median Tumor Size ([2]; day 13 of study): 170 mg | Median Tumor Size ([2]; day 16 of study): 170 mg | Median Tumor Size ([2]; day 20 of study): 221 mg | Median Tumor Size ([2]; day 23 of study): 209 mg | Median Tumor Size ([2]; day 27 of study): 368 mg | Median Tumor Size ([2]; day 30 of study): 486 mg | Median Tumor Size ([2]; day 34 of study): 817 mg | Median Tumor Size ([2]; day 37 of study): 1055 mg | Median Tumor Size ([2]; day 42 of study): 1629 mg | effectiveness of dose for inhibition of tumor growth [2, 7]: moderately effective dose | Median Tumor Size [3, 6]: 120 mg | Median Tumor Size ([3]; day 10 of study): 162 mg | Median Tumor Size ([3]; day 13 of study): 170 mg | Median Tumor Size ([3]; day 16 of study): 170 mg | Median Tumor Size ([3]; day 20 of study): 221 mg | Median Tumor Size ([3]; day 23 of study): 209 mg | Median Tumor Size ([3]; day 27 of study): 368 mg | Median Tumor Size ([3]; day 30 of study): 486 mg | Median Tumor Size ([3]; day 34 of study): 817 mg | Median Tumor Size ([3]; day 37 of study): 1055 mg | complete responders (CR, 100% reduction in tumor size) [3, 8]: 0/8 | partial responders (PR, greater than 50% reduction in tumor size) [3, 8]: 0/8 | Median Tumor Size ([3]; day 42 of study): 1629 mg | effectiveness of dose for inhibition of tumor growth [3, 7]: moderately effective dose | antitumor activity as a single agent [4]: demonstrated antitumor activity
